Active and inactive are the calls of the source. No cut-off for these calls is given here.
Columns and labels:
[1] = tested on: Escherichia coli; experiment: Induction of Escherichia coli bacteriophage lambda DNA intercalation assessed as inhibition of Sal 1/EcoR 1-mediated DNA cleavage after 2 hrs by agarose gel electrophoresis
[2] = target: T1, DNA topoisomerase 2-alpha (Homo sapiens, UniProt P11388); experiment: Inhibition of human topoisomerase 2 using supercoiled pHOT1 DNA as substrate after 30 mins by agarose gel electrophoresis
[3] = tested on: Calf thymus DNA; experiment: Inhibition of methyl green binding to calf thymus DNA incubated for 24 hrs in dark by spectrophotometric method; format: nucleic-acid assay, Bos taurus
[4] = tested on: HepG2; experiment: Antiproliferative activity against human HepG2 cells after 48 hrs by neutral red assay; format: functional, cell-based; conditions: HepG2, 48 h
[5] = tested on: HEp-2; experiment: Antiproliferative activity against human Hep2 cells after 48 hrs by neutral red assay; format: functional, cell-based; conditions: HEp-2, 48 h
[6] = tested on: Caco-2; experiment: Antiproliferative activity against human Caco2 cells after 48 hrs by neutral red assay; format: functional, cell-based; conditions: Caco-2, 48 h
[7] = tested on: Caco-2; experiment: Induction of apoptosis in human Caco2 cells assessed as early apoptotic cells at 0.5 uM after 24 hrs by Annexin V-FITC/propidium iodide staining based flow cytometry (reference value: 0.48%); format: functional
[8] = tested on: Caco-2; experiment: Cell cycle arrest in human Caco2 cells assessed as accumulation at S phase at 0.5 uM after 24 hrs by propidium iodide staining based flow cytometry (reference value: 30.96%); format: functional
[9] = target: T1, DNA topoisomerase 2-alpha; experiment: Inhibition of recombinant human topoisomerase 2 assessed as reduction in relaxation of supercoiled pBS-SK(+) DNA at 10 to 50 uM after 30 mins by agarose gel electrophoresis
[10] = tested on: Caco-2; experiment: Down regulation of Bax mRNA expression level in human Caco2 cells by qRT-PCR method; format: functional, cell-based
[11] = tested on: Caco-2; experiment: Induction of apoptosis in human Caco2 cells assessed as late apoptotic cells at 0.5 uM after 24 hrs by Annexin V-FITC/propidium iodide staining based flow cytometry (reference value: 0.69%); format: functional
[12] = tested on: Caco-2; experiment: Down regulation of Bec1 mRNA expression level in human Caco2 cells by qRT-PCR method; format: functional, cell-based
[13] = tested on: Caco-2; experiment: Induction of apoptosis in human Caco2 cells assessed as viable cells at 0.5 uM after 24 hrs by Annexin V-FITC/propidium iodide staining based flow cytometry (reference value: 96.65%); format: functional; conditions: Caco-2, 24 h, read-out: Activity
[14] = target: T1, DNA topoisomerase 2-alpha; experiment: Inhibition of human topoisomerase 2 assessed as cleavage complex formation at 25 to 50 uM using pBS-SK(+) DNA as substrate after 60 mins by agarose gel electrophoresis
[15] = tested on: Caco-2; experiment: Down regulation of Caspase 8 mRNA expression level in human Caco2 cells by qRT-PCR method; format: functional, cell-based
[16] = tested on: Caco-2; experiment: Down regulation of Bcl-2 mRNA expression level in human Caco2 cells by qRT-PCR method; format: functional, cell-based
[17] = target: T1, DNA topoisomerase 2-alpha; experiment: Inhibition of recombinant human topoisomerase 2 assessed as reduction in relaxation of supercoiled pBS-SK(+) DNA at 5 uM after 30 mins by agarose gel electrophoresis
[18] = tested on: Caco-2; experiment: Induction of apoptosis in human Caco2 cells assessed as accumulation at pre-G1 phase at 0.5 uM after 24 hrs by Annexin V-FITC/propidium iodide staining based flow cytometry (reference value: 2.76%); format: functional
[19] = target: T1, DNA topoisomerase 2-alpha; experiment: Inhibition of recombinant human topoisomerase 2 assessed as reduction in relaxation of supercoiled pBS-SK(+) DNA after 30 mins by agarose gel electrophoresis
[20] = tested on: Caco-2; experiment: Cell cycle arrest in human Caco2 cells assessed as accumulation at G0/G1 phase at 0.5 uM after 24 hrs by propidium iodide staining based flow cytometry (reference value: 53.85%); format: functional
[21] = tested on: Caco-2; experiment: Upregulation of […] mRNA expression level in human Caco2 cells by qRT-PCR method; format: functional, cell-based
[22] = tested on: Caco-2; experiment: Induction of apoptosis in human Caco2 cells assessed as necrotic cells at 0.5 uM after 24 hrs by Annexin V-FITC/propidium iodide staining based flow cytometry (reference value: 1.59%); format: functional
[23] = tested on: Caco-2; experiment: Cell cycle arrest in human Caco2 cells assessed as accumulation at G2/M phase at 0.5 uM after 24 hrs by propidium iodide staining based flow cytometry (reference value: 15.19%); format: functional
[24] = tested on: Caco-2; experiment: Down regulation of Cyclin B mRNA expression level in human Caco2 cells by qRT-PCR method; format: functional, cell-based
[25] = target: T1, DNA topoisomerase 2-alpha; experiment: Inhibition of recombinant human topoisomerase 2 assessed as reduction in relaxation of supercoiled pBS-SK(+) DNA at 10 uM after 30 mins by agarose gel electrophoresis
[26] = target: T1, DNA topoisomerase 2-alpha; experiment: Inhibition of human topoisomerase 2 assessed as cleavage complex formation at 10 uM using pBS-SK(+) DNA as substrate after 60 mins by agarose gel electrophoresis

T1 sequence (P11388 whole entry): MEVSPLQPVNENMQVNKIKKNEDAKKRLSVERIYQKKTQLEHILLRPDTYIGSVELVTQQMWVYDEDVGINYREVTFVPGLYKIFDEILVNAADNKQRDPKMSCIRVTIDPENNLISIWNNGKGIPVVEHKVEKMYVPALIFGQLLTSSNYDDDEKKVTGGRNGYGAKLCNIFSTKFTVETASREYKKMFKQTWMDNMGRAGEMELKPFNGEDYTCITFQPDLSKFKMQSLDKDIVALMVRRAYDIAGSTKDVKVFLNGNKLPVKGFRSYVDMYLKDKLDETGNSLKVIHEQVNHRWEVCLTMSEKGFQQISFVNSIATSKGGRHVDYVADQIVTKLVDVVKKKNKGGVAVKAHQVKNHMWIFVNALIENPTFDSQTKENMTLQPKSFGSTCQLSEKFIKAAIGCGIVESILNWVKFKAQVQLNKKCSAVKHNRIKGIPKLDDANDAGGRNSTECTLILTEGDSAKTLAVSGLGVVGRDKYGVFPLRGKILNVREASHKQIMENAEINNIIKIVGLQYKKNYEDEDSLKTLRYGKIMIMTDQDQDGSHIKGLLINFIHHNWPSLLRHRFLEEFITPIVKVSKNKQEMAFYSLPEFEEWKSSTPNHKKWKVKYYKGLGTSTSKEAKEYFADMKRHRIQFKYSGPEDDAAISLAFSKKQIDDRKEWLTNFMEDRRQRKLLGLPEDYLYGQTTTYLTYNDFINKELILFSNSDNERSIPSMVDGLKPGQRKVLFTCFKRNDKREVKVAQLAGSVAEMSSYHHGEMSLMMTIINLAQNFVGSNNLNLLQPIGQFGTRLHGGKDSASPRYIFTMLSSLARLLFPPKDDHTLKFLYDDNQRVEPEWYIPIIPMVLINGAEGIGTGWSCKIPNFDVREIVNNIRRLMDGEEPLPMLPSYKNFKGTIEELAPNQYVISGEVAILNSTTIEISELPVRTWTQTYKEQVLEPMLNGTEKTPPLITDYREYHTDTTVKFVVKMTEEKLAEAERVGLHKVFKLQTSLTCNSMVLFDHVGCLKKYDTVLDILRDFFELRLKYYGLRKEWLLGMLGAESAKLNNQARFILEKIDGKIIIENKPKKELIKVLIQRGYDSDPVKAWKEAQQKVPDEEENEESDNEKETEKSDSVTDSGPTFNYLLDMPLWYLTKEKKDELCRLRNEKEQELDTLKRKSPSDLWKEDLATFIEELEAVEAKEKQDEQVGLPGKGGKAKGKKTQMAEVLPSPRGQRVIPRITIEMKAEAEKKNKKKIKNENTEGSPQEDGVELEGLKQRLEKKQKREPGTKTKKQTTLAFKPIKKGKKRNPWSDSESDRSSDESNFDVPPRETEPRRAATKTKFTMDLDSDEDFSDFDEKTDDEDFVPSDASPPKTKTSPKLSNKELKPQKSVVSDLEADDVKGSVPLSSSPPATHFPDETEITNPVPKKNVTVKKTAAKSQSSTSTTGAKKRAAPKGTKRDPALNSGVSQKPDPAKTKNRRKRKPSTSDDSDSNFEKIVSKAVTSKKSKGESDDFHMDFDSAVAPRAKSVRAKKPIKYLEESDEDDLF

Compound | DNA intercalation activity (qualitative) [1] | IC50 [2] [µM] | IC50 [3] [µM] | IC50 [4] [µM] | IC50 [5] [µM] | IC50 ([6]; read-out: IC50) [µM] | further results
S=C(NNc1nc2ccccc2n2cnnc12)Nc1ccccc1 | Active | 2.98 | 34.3 | 0.64 | 0.1 | 1.29 | 
COc1cccc(NC(=O)CSc2nnc3c4nncn4c4ccccc4n23)c1 | Active | 0.85 | 38.6 | 0.5 | 0.29 | 0.39 | Activity [7]: 3.91%; Activity [8]: 15.19%; inhibition [9]: Active; Activity [10]: Active; Activity [11]: 7.5%; Activity [12]: Active; viability at 0.5 µM [13]: 84.5%; inhibition [14]: inactive; Activity [15]: Active; Activity [16]: Active; inhibition [17]: inactive; Activity [18]: 13.99%; inhibition [19]: Dose-dependent effect; Activity [20]: 44.23%; Activity [21]: Active; Activity [22]: 2.58%; Activity [23]: 40.58%; Activity [24]: Active
CCCNc1nc2ccccc2n2cnnc12 |  |  |  | 1.08 | 2.33 | 3 | 
COc1nc2ccccc2n2cnnc12 |  |  |  | 8.05 | 3.95 | 8.15 | 
CCNC(=S)NNc1nc2ccccc2n2cnnc12 |  | 5.38 |  | 1.9 | 2.37 | 3.46 | 
O=C(CSc1nnc2c3nncn3c3ccccc3n12)Nc1ccc(F)cc1 | Active | 0.94 | 43.4 | 0.76 | 0.5 | 0.8 | 
c1ccc2c(c1)nc(NC1CCCCC1)c1nncn12 | Active | 0.68 | 39.4 | 0.63 | 0.92 | 0.46 | 
CNc1nc2ccccc2n2cnnc12 | Active | 2.09 | 48.6 | 0.88 | 3.17 | 1.48 | 
COC(=O)CSc1nnc2c3nncn3c3ccccc3n12 |  |  |  | 9.39 | 3.11 | 6.33 | 
CCOC(=O)CCCSc1nnc2c3nncn3c3ccccc3n12 |  |  |  | 5.8 | > 50 | 14.8 | 
COc1cc(NS(C)(=O)=O)ccc1Nc1c2ccccc2nc2ccccc12 |  |  |  |  |  |  | inhibition [25]: Active; inhibition [26]: Active
CCOc1nc2ccccc2n2cnnc12 |  |  |  | 9.9 | 4.21 | 6.41 | 
O=C(NNc1nc2ccccc2n2cnnc12)Nc1ccccc1 |  | 1.19 | 31.3 | 0.71 | 0.56 | 1.44 | 
Clc1ccccc1/C=N/Nc1nc2ccccc2n2cnnc12 | Active | 1.91 | 52.3 | 9.89 | 0.12 | 1.15 | 
Sc1nnc2c3nncn3c3ccccc3n12 | Active | 1.06 | 29.9 | 0.56 | 0.77 | 0.57 | 
CCOC(=O)CSc1nnc2c3nncn3c3ccccc3n12 |  | 2.12 | 62.6 | 0.81 | 0.36 | 1.42 | 
O=C(NNc1nc2ccccc2n2cnnc12)NC1CCCCC1 |  | 1.22 | 28.4 | 2.28 | 0.32 | 0.97 | 
c1ccc(CNc2nc3ccccc3n3cnnc23)cc1 |  |  |  | 2.97 | 40.5 | 4.51 | 
CCCCNc1nc2ccccc2n2cnnc12 | Active | 1.94 | 49.1 | 0.83 | 0.01 | 2.25 | 
c1ccc(CSc2nnc3c4nncn4c4ccccc4n23)cc1 |  |  |  | > 50 | 5.36 | 10.5 | 
COc1cccc2c1C(=O)c1c(O)c3c(c(O)c1C2=O)C[C@@](O)(C(=O)CO)C[C@@H]3O[C@H]1C[C@H](N)[C@H](O)[C@H](C)O1 [DOXORUBICIN] | Active | 0.88 | 30.2 | 0.62 | 0.51 |  | IC50 [6]: 0.73 µM
CSc1nnc2c3nncn3c3ccccc3n12 |  |  |  | 22.7 | 5.79 | > 50 | 
Clc1cccc(Cl)c1/C=N/Nc1nc2ccccc2n2cnnc12 | Active | 2.97 | 40.1 | 0.06 | 0.52 | 5.7 | 
COc1ccccc1/C=N/Nc1nc2ccccc2n2cnnc12 |  |  |  | 2.44 | 2.21 | 3.76 | 
OCCNc1nc2ccccc2n2cnnc12 |  |  |  | 3.18 | 0.14 | 2.66 | 
